Holding throughout (type): functional, cell-based
One assay concerns MCF7. As to the kind of experiment: Antiproliferative activity against human MCF7 cells after 48 hrs by resazurin reduction assay. Conditions: MCF7, 48 h. On the technique in general: Alamar Blue is a resazurin reagent that responds to reducing activity.
The nature of assay [1]: Antiproliferative activity against human fibroblast cells after 48 hrs by resazurin reduction assay.
A further assay concerns PA-1. Briefly: Antiproliferative activity against human PA1 cells after 48 hrs by resazurin reduction assay. Conditions: PA-1, 48 h.

IC50 data for 3 molecules are collected here from ChEMBL document CHEMBL1157037, “Synthesis and in vitro antiproliferative activities of quinoline derivatives” (Eur J Med Chem, 2010).

In the case of `COc1ccc2ccc(-c3cc4ccccc4nc3OC)cc2n1`, the IC50 – broadly, the concentration that inhibits the measured activity by half – was greater than 100 µM with MCF7, 54 µM in assay [1] and 36 µM in the assay with PA-1.
With `CCOc1ccc2ccc(-c3cc4ccccc4nc3OCC)cc2n1`, the IC50 is greater than 100 µM with MCF7, 37 µM in assay [1] and 37 µM in the assay with PA-1.
With `CCOc1ccc2ccc(-c3cc4ccc(-c5cc6ccccc6nc5OCC)cc4nc3OCC)cc2n1`, the figures for the half-inhibitory concentration (IC50) (in the assay on MCF7; in assay [1]; with PA-1) were greater than 100 µM, greater than 100 µM and 50 µM, respectively.
